According to US10722514B2 (FLX Bio, Inc., priority 2017, dated 2020):
Where two headings read alike, the source gives them in different places.

Molecular target: T1, recombinant full-length USP7 (Homo sapiens, UniProt Q93009)
T1 construct: A 25 μl reaction volume containing recombinant full-length USP7 (62 pM)
Assay: USP7-mediated ubiquitin-rhodamine cleavage assay
Assay type: biochemical
Details: recombinant full-length USP7 62 pM, ubiquitin-rhodamine 100 nM, 1 hour reaction at room temperature
Procedure, shortened: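 Rhodamine fluorescence read-out after acetic acid stop; IC50 by 4-parameter nonlinear regression. Enzyme at 62 pM, substrate ubiquitin-rhodamine 100 nM final, 1 h at room temperature in the dark, after 30 min compound preincubation. Buffer: HEPES pH 7.3, NaCl, TCEP, BSA; 1% DMSO.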

[1] = 30-minute incubation with compound, read-out: Potency: USP7 IC50
[2] = 30-minute pre-incubation, read-out: Potency (USP7 IC50)

T1 sequence (Q93009 whole entry): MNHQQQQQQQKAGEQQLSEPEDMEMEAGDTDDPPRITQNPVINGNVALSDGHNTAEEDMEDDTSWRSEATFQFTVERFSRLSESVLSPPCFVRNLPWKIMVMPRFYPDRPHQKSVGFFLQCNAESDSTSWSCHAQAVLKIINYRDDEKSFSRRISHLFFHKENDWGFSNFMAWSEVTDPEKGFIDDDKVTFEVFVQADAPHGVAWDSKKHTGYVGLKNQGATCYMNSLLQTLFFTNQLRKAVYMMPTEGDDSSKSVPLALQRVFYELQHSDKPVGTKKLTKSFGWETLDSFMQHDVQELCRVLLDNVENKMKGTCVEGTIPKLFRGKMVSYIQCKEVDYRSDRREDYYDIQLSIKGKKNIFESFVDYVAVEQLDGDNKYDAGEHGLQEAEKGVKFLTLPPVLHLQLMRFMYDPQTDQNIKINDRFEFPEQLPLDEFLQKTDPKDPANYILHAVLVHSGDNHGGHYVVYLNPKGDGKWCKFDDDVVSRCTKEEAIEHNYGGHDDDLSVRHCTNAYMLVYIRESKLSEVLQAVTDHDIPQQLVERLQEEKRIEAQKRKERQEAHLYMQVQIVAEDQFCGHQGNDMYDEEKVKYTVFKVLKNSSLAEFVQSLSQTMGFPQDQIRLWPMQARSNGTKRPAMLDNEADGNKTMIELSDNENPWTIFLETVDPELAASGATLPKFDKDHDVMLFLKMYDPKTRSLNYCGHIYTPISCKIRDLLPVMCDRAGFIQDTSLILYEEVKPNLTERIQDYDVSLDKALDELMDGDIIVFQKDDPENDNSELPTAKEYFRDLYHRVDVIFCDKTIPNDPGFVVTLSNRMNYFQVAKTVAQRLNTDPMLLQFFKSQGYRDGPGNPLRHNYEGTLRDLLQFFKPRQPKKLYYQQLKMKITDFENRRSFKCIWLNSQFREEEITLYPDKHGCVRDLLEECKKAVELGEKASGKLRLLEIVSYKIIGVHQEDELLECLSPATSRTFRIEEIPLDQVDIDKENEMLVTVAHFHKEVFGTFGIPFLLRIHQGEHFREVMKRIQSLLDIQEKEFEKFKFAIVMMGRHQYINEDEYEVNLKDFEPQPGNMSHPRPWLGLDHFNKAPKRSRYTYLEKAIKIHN

Compound | IC50 [1] [nM] | IC50 [2] [nM]
Cc1cc(C#N)cc(-c2ncnc3cc(CO)sc23)c1O[C@H]1CCCNC1 [Example 183, (S)-3-(6-(Hydroxymethyl)thieno[3,2-d]pyrimidin-4-yl)-5-methyl-4-(piperidin-3-yloxy)benzonitrile] | 1000 to 10000 | 
CCC(O)c1cc2ncnc(-c3cc(Cl)cc(C)c3OCC3(C)CNC3)c2s1 (stereo not drawn) [Example 47, 1-(4-(5-chloro-3-methyl-2-((3-methylazetidin-3-yl)methoxy)phenyl)thieno[3,2-d]pyrimidin-6-yl)propan-1-ol] | 1000 to 10000 | 
Cc1cc(C#N)cc(-c2ccnc3cc(CN4C(=O)CCC4=O)sc23)c1OC1CCNCC1 [Example 212, 3-(2-((2,5-Dioxopyrrolidin-1-yl)methyl)thieno[3,2-b]pyridin-7-yl)-5-methyl-4-(piperidin-4-yloxy)benzonitrile] | < 1000 | 
Cc1cc(Cl)cc(-c2ccnc3ccsc23)c1OCC1(C)CNC1 [Example 45, 7-(5-Chloro-3-methyl-2-((3-methylazetidin-3-yl)methoxy)phenyl)thieno[3,2-b]pyridine] | < 1000 | 
Cc1cc(Cl)cc(-c2ncnc3cc(Cn4c(=O)ccn(CC(F)(F)F)c4=O)sc23)c1OC1CNC1 [Example 587, 3-[[4-[2-(azetidin-3-yloxy)-5-chloro-3-methyl-phenyl]thieno[3,2-d]pyrimidin-6-yl]methyl]-1-(2,2,2-trifluoroethyl)pyrimidine-2,4-dione] |  | < 1000
Cc1cc(Cl)cc(-c2ccnc3cc(CN4C(=O)CC5(CCCC5)CC4=O)sc23)c1OC1CCNCC1 [Example 236, 8-((7-(5-Chloro-3-methyl-2-(piperidin-4-yloxy)phenyl)thieno[3,2-b]pyridin-2-yl)methyl)-8-azaspiro[4.5]decane-7,9-dione] | < 1000 | 
COC(=O)[C@H]1C[C@H](Oc2c(C)cc(Cl)cc2-c2ccnc3cc(Cn4c(=O)ccn(CC(F)(F)F)c4=O)sc23)CN1 [Example 653, methyl (2R,4S)-4-[4-chloro-2-[2-[[2,6-dioxo-3-(2,2,2-trifluoroethyl)pyrimidin-1-yl]methyl]thieno[3,2-b]pyridin-7-yl]-6-methyl-phenoxy]pyrrolidine-2-carboxylate] |  | < 1000
Cc1cc(Cl)cc(-c2ccnc3cc(Cn4c(C(F)(F)F)cccc4=O)sc23)c1OC1CCNCC1 [Example 227, 1-((7-(5-Chloro-3-methyl-2-(piperidin-4-yloxy)phenyl)thieno[3,2-b]pyridin-2-yl)methyl)-6-(trifluoromethyl)pyridin-2(1H)-one] | 10000 to 30000 | 
CCN1C[C@H]2C[C@@H]1[C@H](Oc1c(C)cc(Cl)cc1-c1ccnc3cc(CN4C(=O)CCC4=O)sc13)C2 [Example 321, 1-[[7-[5-chloro-2-[[(1S,4R,5R)-3-ethyl-3-azabicyclo[2.2.1]heptan-5-yl]oxy]-3-methyl-phenyl]thieno[3,2-b]pyridin-2-yl]methyl]pyrrolidine-2,5-dione] | < 1000 | 
Cc1cc(Cl)cc(-c2ccnc3cc(Cn4c(=O)ccn(C)c4=O)sc23)c1OC1CC(NCCO)C1 (stereo not drawn) [Example 532, 3-[[7-[5-chloro-2-[3-(2-hydroxyethylamino)cyclobutoxy]-3-methyl-phenyl]thieno[3,2-b]pyridin-2-yl]methyl]-1-methyl-pyrimidine-2,4-dione; 2,2,2-trifluoroacetic acid] |  | < 1000

Further lines, results first:

IC50 [1] [nM] | IC50 [2] [nM] | Compound
< 1000 |  | Cc1cc(Cl)cc(-c2ccnc3cc(CN4C(=O)CC(C)(C)C4=O)sc23)c1O[C@H]1CCCNC1 [Example 313, 1-[[7-[5-chloro-3-methyl-2-[[(3S)-3-piperidyl]oxy]phenyl]thieno[3,2-b]pyridin-2-yl]methyl]-3,3-dimethyl-pyrrolidine-2,5-dione; 2,2,2-trifluoroacetic acid]
< 1000 |  | Cc1cc(Cl)cc(-c2ccnc3cc(Cn4c(=O)cc[nH]c4=O)sc23)c1O[C@@H]1CNC[C@@H]1F [Example 153, 3-((7-(5-Chloro-2-(((3R,4S)-4-fluoropyrrolidin-3-yl)oxy)-3-methylphenyl)thieno[3,2-b]pyridin-2-yl)methyl)pyrimidine-2,4(1H,3H)-dione]
< 1000 |  | O=C1CCC(=O)N1Cc1cc2nccc(-c3cc(C(F)(F)F)cc(Cl)c3O[C@@H]3CNC[C@@H]3F)c2s1 [Example 54, 1-((7-(3-Chloro-2-(((3R,4S)-4-fluoropyrrolidin-3-yl)oxy)-5-(trifluoromethyl)phenyl)thieno[3,2-b]pyridin-2-yl)methyl)pyrrolidine-2,5-dione]
1000 to 10000 |  | CCC(O)c1cc2nccc(-c3cc(Cl)cc(C)c3O[C@@H]3CNC[C@@H]3F)c2s1 (stereo partly drawn) [Example 82, 1-(7-(5-Chloro-2-(((3R,4S)-4-fluoropyrrolidin-3-yl)oxy)-3-methylphenyl)thieno[3,2-b]pyridin-2-yl)propan-1-ol]
< 1000 |  | Cc1cc(Cl)cc(-c2ccnc3cc(CN4C(=O)C5C(C4=O)C5(C)C)sc23)c1O[C@@H]1CNC[C@@H]1F (stereo partly drawn) [Example 312, 3-[[7-[5-chloro-2-[(3R,4S)-4-fluoropyrrolidin-3-yl]oxy-3-methyl-phenyl]thieno[3,2-b]pyridin-2-yl]methyl]-6,6-dimethyl-3-azabicyclo[3.1.0]hexane-2,4-dione]
< 1000 |  | Cc1cc(Cl)cc(-c2ncnc3cc(CN4C(=O)C5C(C4=O)C5(C)C)sc23)c1O[C@@H]1CCNC[C@H]1F (stereo partly drawn) [Example 352, 3-[[4-[5-chloro-2-[[(3R,4R)-3-fluoro-4-piperidyl]oxy]-3-methyl-phenyl]thieno[3,2-d]pyrimidin-6-yl]methyl]-6,6-dimethyl-3-azabicyclo[3.1.0]hexane-2,4-dione; 2,2,2-trifluoroacetic acid]
 | < 1000 | Cc1cc(Cl)cc(-c2ccnc3cc(Cn4c(=O)ccn(C)c4=O)sc23)c1O[C@@H]1CNC[C@H](F)C1 [Example 497, 3-[[7-[5-chloro-2-[[(3S,5R)-5-fluoro-3-piperidyl]oxy]-3-methyl-phenyl]thieno[3,2-b]pyridin-2-yl]methyl]-1-methyl-pyrimidine-2,4-dione]
1000 to 10000 |  | Cc1cc(Cl)cc(-c2ccnc3cc(CO)sc23)c1O[C@@H]1CNC[C@@H]1F [Example 57, (7-(5-Chloro-2-(((3R,4S)-4-fluoropyrrolidin-3-yl)oxy)-3-methylphenyl)thieno[3,2-b]pyridin-2-yl)methanol]
< 1000 |  | Cc1cc(Cl)cc(-c2ccnc3cc(CN4C(=O)C5C(C4=O)C5(C)C)sc23)c1O[C@@H]1CNCC[C@H]1C (stereo partly drawn) [Example 341, 3-[[7-[5-chloro-3-methyl-2-[[(3S,4R)-4-methyl-3-piperidyl]oxy]phenyl]thieno[3,2-b]pyridin-2-yl]methyl]-6,6-dimethyl-3-azabicyclo[3.1.0]hexane-2,4-dione]
10000 to 30000 |  | CC(=O)N[C@H]1CNC[C@H]1Oc1c(C)cc(Cl)cc1-c1ccnc2cc(CO)sc12 [Example 84, N-((3S,4R)-4-(4-Chloro-2-(2-(hydroxymethyl)thieno[3,2-b]pyridin-7-yl)-6-methylphenoxy)pyrrolidin-3-yl)acetamide]
< 1000 |  | Cc1cc(Cl)cc(-c2ccnc3cc(CN4C(=O)C5C(C4=O)C5(C)C)sc23)c1O[C@H]1CCCN[C@@H]1C (stereo partly drawn) [Example 364, 3-[[7-[5-chloro-3-methyl-2-[[(2R,3S)-2-methyl-3-piperidyl]oxy]phenyl]thieno[3,2-b]pyridin-2-yl]methyl]-6,6-dimethyl-3-azabicyclo[3.1.0]hexane-2,4-dione; 2,2,2-trifluoroacetic acid]
